Data reported in patent publication US4068074A, “Cephalosporin derivatives having at the 3-position of the cephem ring a heterocyclic thiomethyl group with a carboxy or sulfo group and at the 7-position of the cephem ring an α-heterocylic acylaminophenyl-acetamide group” (priority 1974, dated 1978).
Converted amounts (≈) assume the structure as drawn. Where two headings read alike, the source gives them in different places.

Assays:
Type in all cases: cell-based
[1] = system: Staphylococcus Onuma; test: MIC against bacteria (Table I), strain (18)
From the text: (§1) Now, for illustrating the excellent pharmacological effects of the compounds of this invention, the values of MIC (γ/ml.) of the compounds against various bacteria are shown in Table 1, in which the compounds of this invention used are shown by example numbers.
(18) Staphylococcus Onuma

[2] = system: Psuedomonas ovalis IMA 1002; test: MIC against bacteria (Table I), strain (6)
From the text: as §1
(6) Psuedomonas ovalis IMA 1002

[3] = system: Proteus vulgaris OXK US; test: MIC against bacteria (Table I), strain (1)
From the text: as §1
(1) Proteus vulgaris OXK US

[4] = system: Salmonella enteritidis; test: MIC against bacteria (Table I), strain (10)
From the text: as §1
(10) Salmonella enteritidis

[5] = system: Staphylococcus Shimanishi; test: MIC against bacteria (Table I), strain (17)
From the text: as §1
(17) Staphylococcus Shimanishi

[6] = system: Escherichia coli kauffmann 0-1; test: MIC against bacteria (Table I), strain (7)
From the text: as §1
(7) Escherichia coli kauffmann 0-1

[7] = system: Staphylococcus aureus 209P; test: MIC against bacteria (Table I), strain (16)
From the text: as §1
(16) Staphylococcus aureus 209P

[8] = system: Bacillus subtilis ATCC 6633; test: MIC against bacteria (Table I), strain (14)
From the text: as §1
(14) Bacillus subtilis ATCC 6633

[9] = system: Bacillus megatherium 10778; test: MIC against bacteria (Table I), strain (13)
From the text: as §1

[10] = system: Proteus mirabilis IXM OM-19; test: MIC against bacteria (Table I), strain (3)
From the text: as §1
(3) Proteus mirabilis IXM OM-19

[11] = system: Pseudomonas aeruginosa 99 (Gentamycin resistant); test: MIC against bacteria (Table I), strain (5)
From the text: as §1
(5) Pseudomonas aeruginosa 99 (Gentamycin resistant)

[12] = system: Salmonella typhi H901 W; test: MIC against bacteria (Table I), strain (9)
From the text: as §1
(9) Salmonella typhi H901 W

[13] = system: Proteus vulgaris 0X 19US; test: MIC against bacteria (Table I), strain (2)
From the text: as §1
(2) Proteus vulgaris 0X 19US

[14] = system: Shigella sonnei II 37148; test: MIC against bacteria (Table I), strain (12); conditions: II37148
From the text: as §1

[15] = system: Klebsiella pneumoniae ATCC 10031; test: MIC against bacteria (Table I), strain (8)
From the text: as §1
(8) Klebsiella pneumoniae ATCC 10031

[16] = system: Pseudomonas aeruginosa ATCC 8689; test: MIC against bacteria (Table I), strain (4); conditions: (4) Pseudomonas aeruginosa ATCC 8689
From the text: as §1
(4) Pseudomonas aeruginosa ATCC 8689

[17] = system: Micrococcus flavus ATCC 10240; test: MIC against bacteria (Table I), strain (15)
From the text: as §1
(15) Micrococcus flavus ATCC 10240

[18] = system: Shigella flexneri 2a 1675; test: MIC against bacteria (Table I), strain (11); conditions: 2A1675
From the text: as §1

[19] = (1) Proteus vulgaris OXK US, read-out: MIC
[20] = Salmonella enterica, (10) Salmonella enteritidis, read-out: MIC
[21] = ATCC6633, (14) Bacillus subtilis ATCC 6633, read-out: MIC
[22] = (13) Bacillus megatherium 10778, read-out: MIC
[23] = IXMOM19, (3) Proteus mirabilis IXM OM-19, read-out: MIC
[24] = 0X19US, (2) Proteus vulgaris 0X 19US, read-out: MIC
[25] = (12) Shigella sonnei II 37148, read-out: MIC
[26] = Klebsiella pneumoniae, ATCC10031
[27] = ATCC10240, (15) Micrococcus flavus ATCC 10240, read-out: MIC
[28] = (11) Shigella flexneri 2a 1675, read-out: MIC
[29] = (18) Staphylococcus Onuma, read-out: MIC
[30] = (6) Psuedomonas ovalis IMA 1002, read-out: MIC
[31] = ATCC10031, (8) Klebsiella pneumoniae ATCC 10031, read-out: MIC

| Structure (SMILES) | MIC ([1]; Staphylococcus) | MIC [3, 19] | MIC [4, 20] | MIC ([5]; Staphylococcus) | MIC ([6]; Escherichia coli) | MIC ([7]; Staphylococcus aureus, 209P) | MIC [8, 21] | MIC [9, 22] | MIC [10, 23] | MIC ([11]; Pseudomonas aeruginosa) | MIC ([12]; Salmonella enterica, TYPHI) | MIC [13, 24] | MIC [14, 25] | MIC [15, 26] | MIC ([16]; ATCC8689, read-out: MIC) | MIC [17, 27] | MIC [18, 28] | MIC [1, 29] | MIC [2, 30] | MIC ([17]; Micrococcus flavus, ATCC10240) | also measured |
| --- | --- | --- | --- | --- | --- | --- | --- | --- | --- | --- | --- | --- | --- | --- | --- | --- | --- | --- | --- | --- | --- |
| O=C(O)CCSc1nnc(SCC2=C(C(=O)O)N3C(=O)[C@@H](NC(=O)[C@H](NC(=O)c4cnccc4O)c4ccccc4)[C@H]3SC2)s1 [Example 5, 7-[D-α-(4-hydroxynicotinoylamido)-α-phenylacetamido]-3-(5-carboxyethylthio-1,3,4-thiadiazol-2-yl)-thiomethyl-Δ^3-cephem-4-carboxylic acid] | 6.25 µg/mL (≈ 9.07 µM) | < 0.09 µg/mL | 0.39 µg/mL (≈ 0.566 µM) | 6.25 µg/mL (≈ 9.07 µM) | 6.25 µg/mL (≈ 9.07 µM) | 1.56 µg/mL (≈ 2.26 µM) | 0.39 µg/mL (≈ 0.566 µM) | 0.78 µg/mL (≈ 1.13 µM) | 0.78 µg/mL (≈ 1.13 µM) | 6.25 µg/mL (≈ 9.07 µM) | 1.56 µg/mL (≈ 2.26 µM) | 0.19 µg/mL (≈ 0.276 µM) | 6.25 µg/mL (≈ 9.07 µM) | 6.25 µg/mL (≈ 9.07 µM) | 12.5 µg/mL (≈ 18.1 µM) | 3.13 µg/mL (≈ 4.54 µM) | 1.56 µg/mL (≈ 2.26 µM) | – | – | – | MIC [2]: 6.25 µg/mL (≈ 9.07 µM) |
| Nn1c(SCC(=O)O)nnc1SCC1=C(C(=O)O)N2C(=O)[C@@H](NC(=O)[C@H](NC(=O)c3cnccc3O)c3ccccc3)[C@H]2SC1 [Example 30, 7-[D-α-(4-hydroxynicotinoylamido)-α-phenylacetamido]-3-(1-amino-5-carboxymethylthio-1,3,4-triazol-2-yl)thiomethyl-Δ^3-cephem-4-carboxylic acid] | – | < 0.09 µg/mL | 1.56 µg/mL (≈ 2.32 µM) | 12.5 µg/mL (≈ 18.6 µM) | 6.25 µg/mL (≈ 9.29 µM) | 1.56 µg/mL (≈ 2.32 µM) | 0.78 µg/mL (≈ 1.16 µM) | 0.78 µg/mL (≈ 1.16 µM) | 0.78 µg/mL (≈ 1.16 µM) | 12.5 µg/mL (≈ 18.6 µM) | 6.25 µg/mL (≈ 9.29 µM) | 0.78 µg/mL (≈ 1.16 µM) | 12.5 µg/mL (≈ 18.6 µM) | 12.5 µg/mL (≈ 18.6 µM) | 25 µg/mL (≈ 37.2 µM) | – | 6.25 µg/mL (≈ 9.29 µM) | 25 µg/mL (≈ 37.2 µM) | 25 µg/mL (≈ 37.2 µM) | 12.5 µg/mL (≈ 18.6 µM) | – |
| O=C(O)CSc1nnc2sc(SCC3=C(C(=O)O)N4C(=O)C(NC(=O)[C@H](NC(=O)c5cnccc5O)c5ccccc5)[C@H]4SC3)nn12 (stereo partly drawn) [Example 34, 7-[D-α-(4-hydroxynicotinoyl-amido)-α-phenylacetamido]-3-(5-carboxymethylthio-[1,2,4]-triazolo-[3,4-b]-[1,3,4]-thiadiazol-2yl)thiomethyl-Δ^3-cephem-4-carboxylic acid] | – | – | – | – | – | – | – | – | – | – | – | – | – | – | – | – | – | – | – | – | MIC ([1]; (18) Staphylococcus Onuma): 25 µg/mL (≈ 35 µM); MIC ([2]; (6) Psuedomonas ovalis IMA 1002): 25 µg/mL (≈ 35 µM); MIC ([3]; (1) Proteus vulgaris OXK US): < 0.09 µg/mL; MIC ([4]; (10) Salmonella enteritidis): 1.56 µg/mL (≈ 2.18 µM); MIC ([5]; (17) Staphylococcus Shimanishi): 12.5 µg/mL (≈ 17.5 µM); MIC ([6]; (7) Escherichia coli kauffmann 0-1): 12.5 µg/mL (≈ 17.5 µM); MIC ([7]; (16) Staphylococcus aureus 209P): 3.13 µg/mL (≈ 4.38 µM); MIC ([8]; (14) Bacillus subtilis ATCC 6633): 1.56 µg/mL (≈ 2.18 µM); MIC ([9]; (13) Bacillus megatherium 10778): 0.78 µg/mL (≈ 1.09 µM); MIC ([10]; (3) Proteus mirabilis IXM OM-19): 0.78 µg/mL (≈ 1.09 µM); MIC ([11]; (5) Pseudomonas aeruginosa 99 (Gentamycin resistant)): 12.5 µg/mL (≈ 17.5 µM); MIC ([12]; (9) Salmonella typhi H901 W): 6.25 µg/mL (≈ 8.74 µM); MIC ([13]; (2) Proteus vulgaris 0X 19US): 0.78 µg/mL (≈ 1.09 µM); MIC ([15]; (8) Klebsiella pneumoniae ATCC 10031): 12.5 µg/mL (≈ 17.5 µM); MIC [16]: 25 µg/mL (≈ 35 µM); MIC ([17]; (15) Micrococcus flavus ATCC 10240): 12.5 µg/mL (≈ 17.5 µM) |
| CC1=C(C(=O)O)N2C(=O)[C@@H](NC(=O)[C@H](N)c3ccccc3)[C@H]2SC1 [Cephalexin, reference compound] | 12.5 µg/mL (≈ 36 µM) | – | – | 6.25 µg/mL (≈ 18 µM) | 10 µg/mL (≈ 28.8 µM) | 1.56 µg/mL (≈ 4.49 µM) | – | – | – | – | 6.25 µg/mL (≈ 18 µM) | – | 6.25 µg/mL (≈ 18 µM) | – | > 100 µg/mL | – | 6.25 µg/mL (≈ 18 µM) | – | – | 1.56 µg/mL (≈ 4.49 µM) | MIC ([3]; Proteus vulgaris): 30 µg/mL (≈ 86.4 µM); MIC ([4]; Salmonella enterica, ENTERITIDIS): 6.25 µg/mL (≈ 18 µM); MIC ([8]; Bacillus subtilis, ATCC6633): 0.78 µg/mL (≈ 2.25 µM); MIC ([9]; Bacillus, 10778): 0.78 µg/mL (≈ 2.25 µM); MIC ([13]; Proteus vulgaris, 0X19US): 30 µg/mL (≈ 86.4 µM); MIC [15, 31]: 3 µg/mL (≈ 8.64 µM) |
| Cc1cncc(C(=O)N[C@@H](C(=O)N[C@@H]2C(=O)N3C(C(=O)O)=C(CSc4nnc(SCC(=O)O)s4)CS[C@H]23)c2ccccc2)c1O [Example 27, 7-[D-α-(4-hydroxy-3-methylpyridin-5-ylcarboxamido)-α-phenylacetamido]-3-(5-carboxymethylthio-1,3,4-thiadiazol-2-yl)thiomethyl-Δ^3-cephem-4-carboxylic acid] | – | < 0.09 µg/mL | – | – | 3.13 µg/mL (≈ 4.54 µM) | 1.56 µg/mL (≈ 2.26 µM) | – | – | – | – | 0.78 µg/mL (≈ 1.13 µM) | – | – | – | 12.5 µg/mL (≈ 18.1 µM) | 6.25 µg/mL (≈ 9.07 µM) | – | 6.25 µg/mL (≈ 9.07 µM) | 25 µg/mL (≈ 36.3 µM) | – | MIC ([5]; (17) Staphylococcus Shimanishi, read-out: MIC): 6.25 µg/mL (≈ 9.07 µM); MIC ([8]; Bacillus subtilis, ATCC6633): 0.78 µg/mL (≈ 1.13 µM); MIC ([9]; Bacillus, 10778): 0.78 µg/mL (≈ 1.13 µM); MIC ([10]; Proteus mirabilis, IXMOM19): 0.78 µg/mL (≈ 1.13 µM); MIC ([11]; (5) Pseudomonas aeruginosa 99 (Gentamycin resistant), read-out: MIC): 6.25 µg/mL (≈ 9.07 µM); MIC ([13]; Proteus vulgaris, 0X19US): 0.78 µg/mL (≈ 1.13 µM); MIC ([14]; Shigella sonnei): 3.13 µg/mL (≈ 4.54 µM); MIC [15, 31]: 1.56 µg/mL (≈ 2.26 µM); MIC ([18]; Shigella flexneri): 0.78 µg/mL (≈ 1.13 µM) |
